Test [1] relates to neutrophils. The test is described as follows: ANCA stimulated neutrophil degranulation (MPO release, ELISA). It counts as cell-based. The conditions noted are these: Homo sapiens, 0.5 h, TNFα primed, MPO release over 30 minute period (FIG. 10), read-out: IC50 of inhibition of ANCA stimulated neutrophil degranulation. The method, then: FIG. 10 Inhibition of ANCA induced neutrophil degranulation by compound 10. Neutrophils were cultured at 2×10^6 cells/ml in RPMI1640 medium containing human serum antibiotics and 20 ng/ml TNFα for 10 minutes prior to addition of ANCA (1=MPO ANCA; 2=PR3 ANCA) and a range of concentrations of compound 10. Release of MPO was monitored after a 30 minute period by ELISA.
(§1) ANCA are predominantly IgG autoantibodies directed against constituents of primary granules of neutrophils (PR3 and MPO). ANCA associated vasculitis is the most common primary systemic small-vessel vasculitis in adults. […] Neutrophils were cultured for 10 hours in RPMI1640 medium containing 2% human AB serum, 2 mM L-glutamine and antibiotics (100 U/ml penicillin, […] streptomycin) and their apoptosis determined by staining with Giemsa stain and observing an apoptotic morphology by light microscopy. […] The ability of compound 10 to inhibit ANCA-induced neutrophil inflammatory functions was also determined Neutrophils were cultured in RPMI1640 medium containing 2% human AB serum, 2 mM L-glutamine and antibiotics (100 U/ml penicillin, […] streptomycin). […] ANCA stimulated degranulation of neutrophils was assessed by release of myeloperoxidase in to the medium over a 30 minute period, with MPO measured by ELISA. […] HUVEC viability was determined by trypan blue staining and light microscopy.

In test [2] the test system is neutrophils. In words: ANCA-induced neutrophil superoxide generation, lucigenin based assay. The class given is cell-based, human. The conditions noted are these: single concentration 10 μM, 10 minute period (FIG. 11). The method, then: FIG. 11 Inhibition of ANCA induced neutrophil ROS production by compound 10. Neutrophils were cultured at 2×10^6 cells/ml in RPMI1640 medium containing human serum antibiotics and 20 ng/ml TNFα for 10 minutes prior to addition of ANCA and a range of concentrations of compound 10. Generation of superoxide was determined over a 10 minute period using a lucigenin based assay. The area under the curve was calculated to give superoxide generation over the whole assay period.
ANCA are predominantly IgG autoantibodies directed against constituents of primary granules of neutrophils (PR3 and MPO). ANCA associated vasculitis is the most common primary systemic small-vessel vasculitis in adults. […] Neutrophils were cultured for 10 hours in RPMI1640 medium containing 2% human AB serum, 2 mM L-glutamine and antibiotics (100 U/ml penicillin, […] streptomycin) and their apoptosis determined by staining with Giemsa stain and observing an apoptotic morphology by light microscopy. […] The ability of compound 10 to inhibit ANCA-induced neutrophil inflammatory functions was also determined Neutrophils were cultured in RPMI1640 medium containing 2% human AB serum, 2 mM L-glutamine and antibiotics (100 U/ml penicillin, […] streptomycin). […] ANCA stimulated degranulation of neutrophils was assessed by release of myeloperoxidase in to the medium over a 30 minute period, with MPO measured by ELISA. […]

Test [3] has as its system neutrophils. The test is described as follows: ANCA induced neutrophil apoptosis. The class given is cell-based. The conditions noted are these: Homo sapiens, 10 hours, TNFα pre-treated, anti-PR3 and anti-MPO ANCA (FIG. 9), read-out: IC50 for overcoming the increase in apoptosis imposed by ANCA. On the procedure:
Neutrophils were cultured at 2×10^6 cells/ml for 10 h in RPMI1640 medium containing human serum and antibiotics and a range of concentrations of compound 10 in the absence or presence of ANCA. Apoptosis was determined by flow cytometry after DiOC6 staining.
as §1, with “adults. The common pathology of this disease is focal necrotizing lesions of blood vessels and may affect different vessels and organs.” for “adults.”

The term pIC50 denotes the negative decadic logarithm of the IC50, by convention in mol/L.

SMILES strings stand for the structures. pIC50: −log10 of the molar value.

As for `COc1cccc(CNc2nc(Cl)nc3c2ncn3C2OC(CO)C(O)C2O)c1O` (stereo not drawn) [Compound 10, 2-Chloro-6-(2-hydroxy-3-methoxybenzylamino)purine riboside], the results for the pIC50 in the test on neutrophils [1] and in the test on neutrophils [3] were 5.52 and 5.40, respectively. For the same compound, in the test with neutrophils [2], the ANCA-induced superoxide generation entry was “completely inhibited ANCA-induced superoxide generation”.
